Experiments:
PEDF mRNA [1] = test: PEDF mRNA level (qPCR) in ovaries of superovulated mice treated with DXR; assay type: in vivo, mouse; conditions: DXR 6 mg/kg IV vs saline; superovulated 7 weeks ICR female mice
Procedure: FIG. 1A is an illustration depicting the experimental setting: 7 weeks ICR female mice (n=5/group) were treated for superovulation with the standard pregnant mares' serum/human chorionic gonadotropin (PMSG/hCG) protocol [Ben-Aharon et al. Reproductive Biology and Endocrinology: RB&E (2010) 8: 20]. Twenty four hours post PMSG mice were administrated with DXR or saline (control). Ovaries were retrieved twenty four hours post hCG. […] Total RNA was extracted from the ovaries and changes in PEDF mRNA (relative quantification; RQ) level were measured by qPCR using specific primers for PEDF (SEQ ID NOs: 10-11); calibrated with HPRT (SEQ ID NOs: 6-7).
DXR damage was evaluated in 7 weeks ICR female mice following treatment for superovulation with pregnant mares' serum (PMSG, 7 IU) SC on day 0 and human chorionic gonadotropin (hCG, […]) SC on day 2. On day 1, mice were administered with DXR (6 mg/kg) or saline (control) IV. Mice ovaries were retrieved on day 3 (FIG. 1A). […]
Total RNA was isolated from various tissues (ovaries, eyes) or from granulosa cells, using Trizol reagent (Invitrogen) according to manufacturer's instructions, and quantified with the Nano-Drop spectrophotometer (ND-1000; Thermo Scientific). […] DNA was amplified using 1 μl RT reaction and 50 pmol gene-specific primers in ReadyMix™ mixture (Sigma). […]

BAX = BAX protein level (western blot) in LH-15 cells under H2O2; assay type: cell-based, rat; conditions: H2O2 treatment alone, 24 hours
Procedure: (§1) Rat granulosa cell line LH-15 [Suh et al. J Cell Biol (1992) 119: 439-450] was cultured in hormone-free DMEM-F12 medium, supplemented with penicillin (100 IU/ml; Biological Industries), streptomycin ([…]; Biological Industries) and 10% charcoal-stripped fetal bovine serum (CS-FBS; Invitrogen) (culture medium), as described previously (Breckwoldt et al. 1996, Sasson & Amsterdam 2002). Cells were serum-starved for 16 hours (0.1% CS-FBS) prior to and during recombinant PEDF (rPEDF) stimulation or incubated in 2% CS-FBS during H2O2 stimulation.
Samples were homogenized in cold lysis buffer (20 mM HEPES, 150 mM NaCl and 0.2% Igepal; sigma) and centrifuged at 12,000 rpm, for 15 min, at 4° C.). Proteins were separated by sodium dodecyl sulfate polyacrylamide gel electrophoresis (SDS-PAGE; 10%; Bio-Rad, Israel). Separated proteins were transferred onto nitrocellulose membranes (Whatman GmbH, Germany) in a mini tank transfer unit (TE 22, Amersham, UK). Approximate molecular masses were determined by comparison with the migration of pre-stained protein standards (Bio-Rad). Blots were blocked for 1 hour in TBST (10 mM Tris-HCl, pH=8.0, 150 mM NaCl, 0.05% Tween 20) containing 5% skim-milk (Alba, N.Y., USA) followed by an over-night incubation at 4° C. with primary antibodies. […] Intensity of the protein bands was quantified by Image J […] (NIH).

GPX-1 = GPX-1 mRNA level (qPCR) in LH-15 cells under H2O2; assay type: cell-based, rat; conditions: H2O2 treatment alone, 24 hours
Procedure: as §1
(§2) Total RNA was isolated from various tissues (ovaries, eyes) or from granulosa cells, using Trizol reagent (Invitrogen) according to manufacturer's instructions, and quantified with the Nano-Drop spectrophotometer (ND-1000; Thermo Scientific). First-strand cDNA was produced by RT (Maxima™ Reverse transcriptase, Thermo Scientific) from a total of 1 μg RNA, using oligo-dt primers (Thermo Scientific). DNA was amplified using 1 μl RT reaction and 50 pmol gene-specific primers in ReadyMix™ mixture (Sigma). […] Changes in the level of expression of mRNA were detected by SYBR green reagent (SYBR® Green PCR Master Mix, ABI, Carlsbad, Calif., USA) along with 15 ng cDNA and specific primers, on a StepOnePlus Real-Time PCR System (Applied Biosystems, Foster City, Calif., USA).

PEDF mRNA [2] = test: PEDF mRNA level (qPCR) in LH-15 cells exposed to H2O2; assay type: cell-based, rat; conditions: H2O2, 24 hours
Procedure: as §1, §2

LH-15 cells = test: MTT cell viability assay in LH-15 granulosa cells under H2O2; assay type: cell-based, rat; conditions: H2O2 100-500 μM, 24 hours, 2% serum
Procedure: as §1
Equal amount of LH-15 cells were seeded onto 6-well plates to a final volume of 500 μl. Following treatments, each well was incubated for 30 minutes with 10 μl of MTT [3-(4, 5-Dimethylthiazol-2-yl)-2, 5-diphenyltetrazolium bromide; 5 mg/ml] followed by an additional 2-4 hours incubation period at 37° C. The reaction was terminated by addition of 110 μl HCl (0.07 M in isopropanol) and OD 560 nm was measured by the SpectraMax 190 microplate reader ([…], Eugene, Oreg., USA).

SOD-1 = SOD-1 mRNA level (qPCR) in LH-15 cells under H2O2; assay type: cell-based, rat; conditions: H2O2 treatment alone, 24 hours
Procedure: as §1, §2

PEDF [3] = test: Uterine PEDF protein (western blot), sub-acute tamoxifen model; assay type: in vivo, mouse; conditions: tamoxifen daily for 7 days, increasing doses
ERα [4] = test: Uterine ERα mRNA (qPCR), prolonged tamoxifen model; assay type: in vivo, mouse; conditions: prolonged tamoxifen treatment
VEGF [5] = test: Uterine VEGF protein (western blot), prolonged tamoxifen model; assay type: in vivo, mouse; conditions: tamoxifen 2.5 μg/mouse 5 days per week for one month
Procedure: (§3) DXR damage was evaluated in 7 weeks ICR female mice following treatment for superovulation with pregnant mares' serum (PMSG, 7 IU) SC on day 0 and human chorionic gonadotropin (hCG, […]) SC on day 2. On day 1, mice were administered with DXR (6 mg/kg) or saline (control) IV. Mice ovaries were retrieved on day 3 (FIG. 1A). The ability of rPEDF to overcome the destructive effect of DXR 7 weeks ICR female mice were treated with DXR (6 mg/kg) or saline (control) IV on day 0, rPEDF (2 mg/kg) or TRIS (control) was administered SC on day 1, followed by induction for superovulation with PMSG (7 IU) SC on day 4 and hCG (7 IU) SC on day 6. Mice ovaries were retrieved on day 7 (FIG. 2A). […] Mice uteri were excised at day 7. […] Mice treated with tamoxifen alone served as control. […] Mice treated with tamoxifen alone served as control.
(§4) Samples were homogenized in cold lysis buffer (20 mM HEPES, 150 mM NaCl and 0.2% Igepal; sigma) and centrifuged at 12,000 rpm, for 15 min, at 4° C.). Proteins were separated by sodium dodecyl sulfate polyacrylamide gel electrophoresis (SDS-PAGE; 10%; Bio-Rad, Israel). […] Approximate molecular masses were determined by comparison with the migration of pre-stained protein standards (Bio-Rad). […] Intensity of the protein bands was quantified by Image J […] (NIH).

PNPLA2 [6] = test: Uterine PNPLA2 mRNA (qPCR), prolonged tamoxifen model; assay type: in vivo, mouse; conditions: one month of tamoxifen treatment
[7] = system: progesterone receptor (PR); test: Uterine PR mRNA (qPCR), sub-acute tamoxifen model; assay type: in vivo, mouse; conditions: sub-acute tamoxifen treatment
Laminin receptor [8] = test: Uterine Laminin receptor mRNA (qPCR), sub-acute tamoxifen model; assay type: in vivo, mouse; conditions: sub-acute tamoxifen treatment
ERα [9] = test: Uterine ERα mRNA (qPCR), sub-acute tamoxifen model; assay type: in vivo, mouse; conditions: sub-acute tamoxifen treatment
Laminin receptor [10] = test: Uterine Laminin receptor mRNA (qPCR), prolonged tamoxifen model; assay type: in vivo, mouse; conditions: one month of tamoxifen treatment
OVX ICR mice = test: Uterine weight, prolonged tamoxifen model in ovariectomized mice; assay type: in vivo, mouse; conditions: tamoxifen 2.5 μg/mouse 5 days per week for one month
Procedure: as §3
(§5) At the end of each experiment, uteri were isolated, excised and weighed.

PNPLA2 [11] = test: Uterine PNPLA2 mRNA (qPCR), sub-acute tamoxifen model; assay type: in vivo, mouse; conditions: sub-acute tamoxifen treatment
Procedure: DXR damage was evaluated in 7 weeks ICR female mice following treatment for superovulation with pregnant mares' serum (PMSG, 7 IU) SC on day 0 and human chorionic gonadotropin (hCG, […]) SC on day 2. On day 1, mice were administered with DXR (6 mg/kg) or saline (control) IV. Mice ovaries were retrieved on day 3 (FIG. 1A). […] Mice ovaries were retrieved on day 7 (FIG. 2A). […] Mice uteri were excised at day 7.
Total RNA was isolated from various tissues (ovaries, eyes) or from granulosa cells, using Trizol reagent (Invitrogen) according to manufacturer's instructions, and quantified with the Nano-Drop spectrophotometer (ND-1000; Thermo Scientific). First-strand cDNA was produced by RT (Maxima™ Reverse transcriptase, Thermo Scientific) from a total of 1 μg RNA, using oligo-dt primers (Thermo Scientific). DNA was amplified using 1 μl RT reaction and 50 pmol gene-specific primers in ReadyMix™ mixture (Sigma). Polymerase Chain Reaction (PCR) products were separated by 1.5% agarose gel electrophoresis and visualized by ethidium bromide staining. Changes in the level of expression of mRNA were detected by SYBR green reagent (SYBR® Green PCR Master Mix, ABI, Carlsbad, Calif., USA) along with 15 ng cDNA and specific primers, on a StepOnePlus Real-Time PCR System (Applied Biosystems, Foster City, Calif., USA).

[12] = system: ovariectomized (OVX) ICR mice; test: Uterine weight, sub-acute tamoxifen model in ovariectomized mice; assay type: in vivo, mouse; set-up: uterine weight: dose or concentration left out as unconfirmed; conditions: tamoxifen 0.3-3.3 daily for 7 days
Procedure: as §3, §5

[13] = system: progesterone receptor (PR); test: Uterine PR mRNA (qPCR), prolonged tamoxifen model; assay type: in vivo, mouse; conditions: prolonged tamoxifen treatment
Procedure: DXR damage was evaluated in 7 weeks ICR female mice following treatment for superovulation with pregnant mares' serum (PMSG, 7 IU) SC on day 0 and human chorionic gonadotropin (hCG, […]) SC on day 2. On day 1, mice were administered with DXR (6 mg/kg) or saline (control) IV. Mice ovaries were retrieved on day 3 (FIG. 1A). The ability of rPEDF to overcome the destructive effect of DXR 7 weeks ICR female mice were treated with DXR (6 mg/kg) or saline (control) IV on day 0, rPEDF (2 mg/kg) or TRIS (control) was administered SC on day 1, followed by induction for superovulation with PMSG (7 IU) SC on day 4 and hCG (7 IU) SC on day 6. Mice ovaries were retrieved on day 7 (FIG. 2A). […] Mice uteri were excised at day 7. […] Mice treated with tamoxifen alone served as control. […]
as §2, with “First-strand cDNA was produced by RT (Maxima™ Reverse transcriptase, Thermo Scientific) from a total of 1 μg RNA, using oligo-dt primers (Thermo Scientific).” left out

PEDF [14] = test: Uterine PEDF protein (western blot), prolonged tamoxifen model; assay type: in vivo; conditions: tamoxifen 2.5 μg/mouse 5 days per week for one month
VEGF [15] = test: Uterine VEGF protein (western blot), sub-acute tamoxifen model; assay type: in vivo, mouse; conditions: tamoxifen daily for 7 days, various concentrations
Procedure: as §3, §4

CD34 = CD34 immunohistochemical staining of uterine blood vessels, prolonged tamoxifen model; assay type: in vivo, mouse; conditions: prolonged tamoxifen alone vs control
Procedure: as §3
Paraffin-embedded sections were deparaffinized, microwave heated while being subjected to an antigen retrieval agent (H-3300, Vector Laboratories Inc., Burlingame, Calif., USA), cooled on ice to room temperature, rinsed in PBS, incubated for 1 hour with PBSTg (0.2% Tween and gelatin in PBS), washed with PBS, blocked for 10 minutes in blocking solution (Cell Marque Corporation, Calif., USA) and incubated overnight with anti PNPLA2 or anti-CD34 primary antibodies. […]

For `COc1cccc2c1C(=O)c1c(O)c3c(c(O)c1C2=O)C[C@@](O)(C(=O)CO)C[C@@H]3O[C@H]1C[C@H](N)[C@H](O)[C@H](C)O1` [DXR, Doxorubicin], the “PEDF mRNA level in mice ovaries” value (PEDF mRNA [1]) was “significantly (P<0.05) reduced PEDF mRNA level”.
For `OO` [H2O2], the BAX level (BAX) was “elevated”, the “GPX-1 mRNA level” value (GPX-1) was “decreased” and the “PEDF mRNA level in LH-15 cells” value (PEDF mRNA [2]) was “significantly (P<0.01) reduced PEDF mRNA level, already at a concentration of 100 μM”. For the same molecule, the “cells viability (MTT)” value (LH-15 cells) was “statistically significant (P<0.05), dose dependent, decrease in cells viability” and the “SOD-1 mRNA level” value (SOD-1) was “decreased”.
`CC/C(=C(\c1ccccc1)c1ccc(OCCN(C)C)cc1)c1ccccc1` [tamoxifen] was tested, and the “uterine PEDF protein expression” value (PEDF [3]) was “down-regulated”, the “ERα mRNA expression in uteri” value (ERα [4]) was “up-regulated” and the “uterine VEGF protein level” value (VEGF [5]) was “up-regulation of VEGF protein level”. The “PNPLA2 level in uteri” value (PNPLA2 [6]) was “significantly increased”, the “PR mRNA level in uteri” value [7] was “no significant effect” and the “Laminin receptor mRNA level in uteri” value (Laminin receptor [8]) was “up-regulated”. For the same molecule, the “ERα mRNA level in uteri” value (ERα [9]) was “up-regulated”, the “Laminin receptor level in uteri” value (Laminin receptor [10]) was “did not change significantly” and the uterine weight (OVX ICR mice) was “increase in uterine weight”. For the same molecule, the “PNPLA2 receptor mRNA level in uteri” value (PNPLA2 [11]) was “up-regulated”, the uterine weight [12] was “dose dependent increase” and the “PR expression in uteri” value [13] was “no significant effect”. For the same molecule, the “uterine PEDF protein level” value (PEDF [14]) was “down-regulation of PEDF protein level”, the “uterine VEGF protein level” value (VEGF [15]) was “up-regulated in a dose dependent manner” and the “density of uterine blood vessels (CD34 staining)” value (CD34) was “remarkable increase in the density of uterine blood vessels”.
